Drawing on patent US20090156582A1, “Pyrazole Compound” (priority 2005, published 2009), this text covers IC50 for 39 compounds.

Structures are written as SMILES.

The test deals with T1, recombinant GSK3β enzyme (human GSK3β) (Homo sapiens, UniProt P49841).
T1 construct: FLAG (N); made in house; host or cells: Sf-21 insect cells, recombinant baculovirus (pFASTBAC1 / BAC-TO-BAC)
As to the kind of experiment: Measurement of GSK3β inhibitory activity. Format: biochemical. The following applies: glycogen synthase peptide substrate, Kinase Glo luminescence, read-out: IC50 (concentration of test compound needed for 50% inhibition of luminescent intensity), GSK3β inhibitory activity. An excerpt: Human GSK3β gene was cloned by a PCR method using a primer set:
prepared using human brain cDNA (Clontech; trade name: QUICK-Clone cDNA) as a template and in reference to the base sequence of GSK3β gene registered in GenBank under Accession Number NM_002093.
PCR was done according to the protocol attached to KOD plus DNA polymerase (Toyo Boseki Kabushiki Kaisha). The obtained PCR product was electrophoresed on agarose gel (1%), and 1.2 kb of DNA fragment including GSK3β gene was collected from the gel and then digested with restriction enzymes EcoR I and Sal I. The restriction enzyme-treated DNA was electrophoresed on agarose gel (1%). The obtained DNA fragment was collected, and ligated to the plasmid pFASTBAC1 (Invitrogen), which had been digested with restriction enzyme EcoR I and Sal I, to produce expression plasmid pFB-GSK3B. The base sequence of insertion fragment was confirmed to find that it corresponded to the objective sequence. In addition, virus stock BAC-GSK3B of recombinant Baculovirus was prepared using BAC-TO-BAC Baculovirus Expression System (Invitrogen).
Sf-21 cells (Invitrogen) were seeded on Sf-900 II SFM medium (Invitrogen)(150 ml) containing 10% fetal calf serum at 1×10^6 cells/ml, and cultured at 27° C. for 24 hr. The virus stock […] obtained above of recombinant Baculovirus was added by 150 μl to the obtained culture medium, and the cells were cultured for another 60 hr. The culture medium was centrifuged (3000 rpm, 10 min) to separate the cells, and the cells were washed once with PBS. The cells were suspended in 10 ml of cell lysis buffer (25 mM HEPES (pH 7.5), 1% Triton X, 130 mM sodium chloride, 1 mM EDTA, 1 mM Dithiothreitol, 25 mM β-glycerophosphate, Protease inhibitor Complete (Boehringer), 1 mM Sodium orthovanadate), treated 4 times using a homogenizer (POLYTRON) at 20000 rpm for 30 sec to disrupt the cells. The disrupted solution of cells was centrifuged (40000 rpm, 45 min.), and GSK3β was purified from the obtained supernatant using Anti-FLAG M2 Affinity Gel (Sigma Ltd.).
10 μl of ATP solution (2.5 μM ATP) was added to the obtained mixture, and the mixture was reacted at room temperature for 30 min. Kinase Glo Reagent (Promega) (50 μl) was added to the reaction solution to stop the reaction. After reaction at room temperature for 10 min, the luminescent intensity was measured using ARVO multilabel counter (PerkinElmer Life Sciences). The concentrations of the test compounds needed for 50% inhibition of luminescent intensity (IC50 value) were calculated by PRISM 3.0 (GraphPad Software).
A general note: Kinase-Glo measures the ATP left after a reaction by luminescence.

T1 sequence (P49841 whole entry): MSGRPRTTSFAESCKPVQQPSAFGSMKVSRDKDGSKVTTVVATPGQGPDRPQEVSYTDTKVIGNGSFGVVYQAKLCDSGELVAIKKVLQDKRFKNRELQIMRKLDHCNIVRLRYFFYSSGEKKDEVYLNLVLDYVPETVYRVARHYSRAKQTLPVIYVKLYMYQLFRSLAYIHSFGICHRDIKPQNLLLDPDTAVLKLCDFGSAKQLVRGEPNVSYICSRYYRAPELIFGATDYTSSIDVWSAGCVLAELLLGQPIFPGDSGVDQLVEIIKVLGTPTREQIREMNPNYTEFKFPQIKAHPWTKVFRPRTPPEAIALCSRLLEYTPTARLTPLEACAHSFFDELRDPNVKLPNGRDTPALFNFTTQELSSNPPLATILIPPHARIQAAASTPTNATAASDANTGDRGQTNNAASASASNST

For the compound `CCCN(CCC)S(=O)(=O)c1ccc(C(=O)Nc2c[nH]nc2C(=O)NCCc2ccccc2)cc1` [Example 136, 4-({4-[(dipropylamino)sulfonyl]benzoyl}amino)-N-(2-phenylethyl)-1H-pyrazole-3-carboxamide], the IC50 was determined as 485 nM.
Turning to `CC(=O)Nc1cccc(C(=O)Nc2c[nH]nc2C(=O)NCCS(=O)(=O)c2ccccn2)c1` [Example 384, 4-((3-(acetylamino)benzoyl)amino)-N-(2-(pyridin-2-ylsulfonyl)ethyl)-1H-pyrazole-3-carboxamide], the IC50 is < 100 nM.
For `COc1ccccc1CC(=O)Nc1c[nH]nc1C(=O)NCCc1ccccc1` [Example 129, 4-{[(2-methoxyphenyl)acetyl]amino}-N-(2-phenylethyl)-1H-pyrazole-3-carboxamide], the IC50 is 157 nM.
With `O=C(/C=C/c1ccccc1)Nc1c[nH]nc1C(=O)NCc1ccccc1` [Example 105, N-benzyl-4-{[(2E)-3-phenylprop-2-enoyl]amino}-1H-pyrazole-3-carboxamide], the IC50 came to 273 nM.
`O=C(Nc1c[nH]nc1C(=O)NCCc1ccccc1)c1ccc(Oc2ccccc2)cc1` [Example 135, 4-[(4-phenoxybenzoyl)amino]-N-(2-phenylethyl)-1H-pyrazole-3-carboxamide]: the IC50 is < 100 nM.
For `CC(=O)Nc1cccc(C(=O)Nc2c[nH]nc2C(=O)NCCCOC(C)C)c1` [Example 385, 4-((3-(acetylamino)benzoyl)amino)-N-(3-isopropoxypropyl)-1H-pyrazole-3-carboxamide], the IC50 was < 100 nM.
On to `O=C(Cc1c[nH]c2ccccc12)Nc1c[nH]nc1C(=O)NCCc1ccccc1` [Example 130, 4-[(1H-indol-3-ylacetyl)amino]-N-(2-phenylethyl)-1H-pyrazole-3-carboxamide], for which the IC50 came to 128 nM.
With `O=C(Nc1c[nH]nc1C(=O)NCCO)c1ccccn1` [Example 401, N-(3-(((2-hydroxyethyl)amino)carbonyl)-1H-pyrazol-4-yl)pyridine-2-carboxamide], the IC50 is < 100 nM.
Take `CC(=O)Nc1cccc(C(=O)Nc2c[nH]nc2C(=O)NCCOc2ccccc2)c1` [Example 369, 4-((3-(acetylamino)benzoyl)amino)-N-(2-phenoxyethyl)-1H-pyrazole-3-carboxamide]: the IC50 was < 100 nM.
On to `O=C(Nc1c[nH]nc1C(=O)NC1CCCC1)c1cnccn1` [compound 079], for which the IC50 was < 100 nM.
For `O=C(Nc1c[nH]nc1C(=O)NCCCc1ccccc1)c1ccccn1` [Example 342, N-(3-(((3-phenylpropyl)amino)carbonyl)-1H-pyrazol-4-yl)pyridine-2-carboxamide], the IC50 was < 100 nM.
For `O=C(Nc1ccccc1)c1n[nH]cc1NC(=O)c1c[nH]c2ccccc12` [compound 097] the value was < 100 nM.
`N#CCCNC(=O)c1n[nH]cc1NC(=O)C1CCCC1` [Example 411, N-(2-cyanoethyl)-4-((cyclopentylcarbonyl)amino)-1H-pyrazole-3-carboxamide]: the IC50 was < 100 nM.
As to `O=C(Nc1c[nH]nc1C(=O)NC1CCCC1)c1cccc2c1OCC2` [Example 362, N-cyclopentyl-4-((2,3-dihydro-1-benzofuran-7-ylcarbonyl)amino)-1H-pyrazole-3-carboxamide], the IC50 is < 100 nM.
For `O=C(Nc1c[nH]nc1C(=O)Nc1ccccc1)c1ccccn1` [Example 341, N-(3-(anilinocarbonyl)-1H-pyrazol-4-yl)pyridine-2-carboxamide] the value was < 100 nM; for `O=C(Nc1c[nH]nc1C(=O)NCCc1cccnc1)c1ccccn1` [Example 352, N-(3-(((2-pyridin-3-ylethyl)amino)carbonyl)-1H-pyrazol-4-yl)pyridine-2-carboxamide], < 100 nM.
As to `CC(C)NC(=O)c1n[nH]cc1NC(=O)CCc1ccccc1` [compound 024], the IC50 is < 100 nM.
`O=C(Nc1c[nH]nc1C(=O)NC1Cc2ccccc2C1)c1ccccn1` [Example 339]: the IC50 was < 100 nM.
Turning to `O=C(Nc1c[nH]nc1C(=O)NCC(F)(F)F)c1ccccn1` [Example 360, N-(3-(((2,2,2-trifluoroethyl)amino)carbonyl)-1H-pyrazol-4-yl)pyridine-2-carboxamide], the IC50 was < 100 nM.
For `Cc1ccc(C(=O)Nc2c[nH]nc2C(=O)NCCC#N)cc1` [Example 418, N-(2-cyanoethyl)-4-(4-methylbenzoylamino)-1H-pyrazole-3-carboxamide] the value was < 100 nM.
Consider `O=C(Nc1c[nH]nc1C(=O)NCC(F)(F)F)c1ccccc1` [Example 422, 4-(benzoylamino)-N-(2,2,2-trifluoroethyl)-1H-pyrazole-3-carboxamide], for which the IC50 is < 100 nM.
Take `COc1ccc(C(=O)Nc2c[nH]nc2C(=O)NC2CCCC2)cc1` [compound 072]: the IC50 was < 100 nM.
With `O=C(CC1CCCC1)Nc1c[nH]nc1C(=O)NCCc1ccccc1` [Example 121, 4-[(cyclopentylacetyl)amino]-N-(2-phenylethyl)-1H-pyrazole-3-carboxamide], the IC50 is < 100 nM.
With `CC(C)NC(=O)c1n[nH]cc1NC(=O)c1ccc(OC(F)(F)F)cc1` [compound 035] the figure was < 100 nM.
Turning to `O=C(Nc1c[nH]nc1C(=O)NCCSc1ccccc1)c1ccccn1` [Example 361, N-(3-(((2-(phenylthio)ethyl)amino)carbonyl)-1H-pyrazol-4-yl)pyridine-2-carboxamide], the IC50 was < 100 nM.
For the compound `O=C(Nc1c[nH]nc1C(=O)NCCNc1ccccc1)c1ccccn1` [Example 399, N-(3-(((2-anilinoethyl)amino)carbonyl)-1H-pyrazol-4-yl)pyridine-2-carboxamide], the IC50 is < 100 nM.
In the case of `O=C(Nc1c[nH]nc1C(=O)NCCc1ccccc1)c1ccccn1` [Example 338, N-(3-(((2-phenylethyl)amino)carbonyl)-1H-pyrazol-4-yl)pyridine-2-carboxamide], the IC50 is < 100 nM.
With `O=C(COc1ccccc1)Nc1c[nH]nc1C(=O)NCc1ccccc1` [Example 101, N-benzyl-4-[(phenoxyacetyl)amino]-1H-pyrazole-3-carboxamide] the figure was < 100 nM; with `O=C(Nc1c[nH]nc1C(=O)NC1CCCC1)c1ccccc1` [compound 070], < 100 nM.
For the compound `O=C(Nc1c[nH]nc1C(=O)NCc1ccccc1)c1ccc(F)cc1F` [Example 113, N-benzyl-4-[(2,4-difluorobenzoyl)amino]-1H-pyrazole-3-carboxamide], the IC50 was < 100 nM.
With `N#CCCNC(=O)c1n[nH]cc1NC(=O)c1ccccn1` [Example 358, N-(3-(((2-cyanoethyl)amino)carbonyl)-1H-pyrazol-4-yl)pyridine-2-carboxamide] the figure was < 100 nM; with `CCCN(CCC)S(=O)(=O)c1ccc(C(=O)Nc2c[nH]nc2C(=O)NC(C)C)cc1` [compound 033], 171 nM.
For `O=C(Nc1c[nH]nc1C(=O)NCCNc1ccccn1)c1ccccn1` [Example 397, N-(3-(((2-(pyridin-2-ylamino)ethyl)amino)carbonyl)-1H-pyrazol-4-yl)pyridine-2-carboxamide] the value was < 100 nM; for `CC(=O)Nc1cccc(C(=O)Nc2c[nH]nc2C(=O)NCC(=O)c2ccccc2)c1` [Example 374, 4-((3-(acetylamino)benzoyl)amino)-N-(2-oxo-2-phenylethyl)-1H-pyrazole-3-carboxamide], < 100 nM; for `O=C(Nc1c[nH]nc1C(=O)NCCOc1ccccc1)c1ccccn1` [Example 355, N-(3-(((2-phenoxyethyl)amino)carbonyl)-1H-pyrazol-4-yl)pyridine-2-carboxamide], < 100 nM.
Consider `CC(C)NC(=O)c1n[nH]cc1NC(=O)c1ccc2[nH]ccc2c1` [compound 036], for which the IC50 is < 100 nM.
With `O=C(Nc1c[nH]nc1C(=O)NCCc1c[nH]c2ccccc12)c1ccccn1` [Example 348, N-(3-(((2-(1H-indol-3-yl)ethyl)amino)carbonyl)-1H-pyrazol-4-yl)pyridine-2-carboxamide] the figure was < 100 nM; with `COc1ncccc1C(=O)Nc1c[nH]nc1C(=O)NC1CCCC1` [Example 365, N-(3-((cyclopentylamino)carbonyl)-1H-pyrazol-4-yl)-2-methoxynicotinamide], < 100 nM.
For the compound `O=C(Nc1c[nH]nc1C(=O)NC1CCCC1)c1ccc(OC(F)(F)F)cc1` [compound 076], the IC50 is < 100 nM.
